Measured values reported in patent US8624027B2, “Combination therapy for treating cancer and diagnostic assays for use therein” (AbbVie Inc., priority 2005, dated 2014).
Where two headings read alike, the source gives them in different places.

Experiments:
[1] = tested on: NCI-H146 human small cell lung carcinoma cells; test: Cellular efficacy in human tumor cell line (MTS viability assay); type: cell-based; settings: 10% human serum, 48 hours
Experimental: NCI-H146 (ATCC, Manassas, Va.) human small cell lung carcinoma cells were plated 50,000 cells per well in 96-well tissue culture plates in a total volume of 100 μL tissue culture medium supplemented with 10% human serum (Invitrogen, Carlsbad, Calif.) instead of fetal bovine serum and treated with a 2-fold serial dilution of the compounds of interest from 10 μM to 0.020 μM. Each concentration was tested in duplicate at least 3 separate times. The number of viable cells following 48 hours of compound treatment was determined using the CellTiter 96® AQueous non-radioactive cell proliferation MTS assay according to manufacturer's recommendations (Promega Corp., Madison, Wis.).

[2] = Pharmacokinetic evaluation in rat; type: in vivo; settings: male, Sprague-Dawley, plasma; for AUC(0-inf): single 5 mg/kg oral dose, Table 1, read-out: Pharmacokinetic area under the plasma concentration Curve (rat) AUC0-∞; for AUC / Cmax: 5 mg/kg, oral
Experimental: The pharmacokinetic behavior of compounds of this disclosure was determined following a single 2 mg/kg intravenous or 5 mg/kg oral dose in male Sprague-Dawley derived rats (n=3 per group). The compounds were prepared as 2 mg/mL solution in a 10% DMSO in PEG-400 formulation for both oral and intravenous administration. The 1 mL/kg intravenous dose was administered as a slow bolus (about 1-2 minutes) in the jugular vein of a rat under light ether anesthetic. The oral dose was administered by gavage. Serial blood samples were obtained from a tail vein of each rat prior 0.1 (IV only), 0.25, 0.5, 1, 1.5, 2, 3, 4, 6, 8 and 24 hours after dosing. The heparinized samples were thoroughly mixed and placed in an ice bath. Plasma was separated by centrifugation and stored frozen prior to analysis.
The compounds of interest were separated from the plasma using protein precipitation with acetonitrile. A plasma (100-200 μL, sample or spiked standard) aliquot was combined with 50 μL of internal standard (structurally related analog prepared in acetonitrile) and 1 ml acetonitrile in a 96-well polypropylene deep well plate. The plates were vortexed for 30 seconds followed by centrifugation (3500 rpm×15 minutes, 4° C.). In an automated manner, the supernatant was transferred to a clean 96-well plate. The samples were evaporated to near dryness on a Micro-Vap™ under a stream of dry nitrogen over low heat (˜37° C.). The samples were reconstituted vortexing with 0.2 mL 5% DMSO in acetonitrile. A 0.1-0.2 ml aliquot of acetonitrile: 0.1% trifluoroacetic acid (20:80, by volume) was added to each well, followed by an additional 30 second vortexing. The plates were centrifuged (3500 rpm×15 minutes, 4° C.) prior to HPLC-MS/MS analysis. Samples were analyzed simultaneously with spiked plasma standards. All samples from each study were analyzed as a single batch on the LC-MS/MS.
The compounds of interest and the internal standard were separated from each other and co-extracted contaminants on a 50×3 mm Keystone Betasil CN 5 μm column with an acetonitrile: 0.1% trifluoroacetic acid mobile phase (50:50, by volume) at a flow rate of 0.7 ml/min. Analysis was performed on a Sciex API 300™ Biomolecular Mass Analyzer using a heated nebulizer interface. Peak areas of the title compounds and internal standards were determined using the Sciex MacQuan™ software. Calibration curves were derived from peak area ratio (parent drug/internal standard) of the spiked rat plasma standards using least squares linear regression of the ratio versus the theoretical concentration. The methods were generally linear over the range of the standard curve (correlation coefficients >0.99) with an estimated quantitation limit of 0.01 μg/mL. The plasma concentration data for each animal were submitted to multi-exponential curve fitting using WinNonlin. The area under the plasma concentration-time curve from 0 to t hours (time of the last measurable plasma concentration) after dosing (AUC0-t) was calculated using the linear trapezoidal rule for the plasma concentration-time profiles. The residual area extrapolated to infinity, determined as the final measured plasma concentration (Ct) divided by the terminal elimination rate constant (β), was added to AUC0-t to produce the total area under the curve (AUC0-∞). Ki values shown in the tables below were determined using Wang's equation (Wang Z X., An Exact Mathematical Expression For Describing Competitive Binding Of Two Different Ligands To A Protein Molecule. FEBS Lett. 1995; 360:111-4)).

[3] = target: T1, Bcl-2 protein (Homo sapiens, UniProt P10415, DELINS35-91DVEENRTEAPEGTESE, form not given); test: Bcl-2 binding affinity, fluorescence polarization with fluorescein-labeled BAX peptide; settings: Wang's equation, read-out: Target Binding Affinity Ki (Bcl-2)
T1 construct: fused on or other part: A short piece of the Bcl-xL (Q07817) loop replaces Bcl-2 loop residues 35-91; The C-terminal membrane anchor is absent

[4] = target: Bcl-XL protein (Homo sapiens, UniProt Q07817); test: Bcl-XL binding affinity, fluorescence polarization with fluorescein-labeled BAD peptide; settings: Wang's equation, read-out: Target Binding Affinity Ki (Bcl-XL)
Experimental: A mixture comprising 125 μL per well of assay buffer (20 mM phosphate buffer (pH 7.4), 1 mM EDTA, 50 mM NaCl, 0.05% PF-68), 6 nM of Bcl-XL protein (prepared as described in Science 1997, 275, 983-986), 1 nM fluorescein-labeled BAD peptide (prepared in-house) and the DMSO solution of the compound was shaken for 2 minutes and placed in a LJL Analyst (LJL Bio Systems, CA). A negative control (DMSO, 15 nM BAD peptide, assay buffer) and a positive control (DMSO, 1 nM BAD peptide, 6 nM Bcl-XL, assay buffer) were used to determine the range of the assay. Polarization was measured at room temperature using a continuous Fluorescein lamp (excitation 485 nm, emission 530 nm). Percentage of inhibition was determined by (1-((mP value of well-negative control)/range))×100%.

[5] = NCI-H146, Table 1, read-out: NCI-H146 Cellular Efficacy EC50
[6] = NCI-H146, Table 2, read-out: NCI-H146 Cellular Efficacy H146, EC50
[7] = Table 2, read-out: Pharmacokinetic area under the plasma concentration curve (rat) AUC
[8] = Table 2, read-out: Pharmacokinetic peak plasma concentration (rat) Cmax
[9] = NCI-H146, Table 3, read-out: NCI-H146 Cellular Efficacy H146 EC50
[10] = Table 3, read-out: Pharmacokinetic area under the plasma concentration Curve (rat) AUC
[11] = Table 3, read-out: Pharmacokinetic peak plasma concentration (rat) Cmax

T1 sequence (P10415 with tags, fused parts or gaps with the stated changes): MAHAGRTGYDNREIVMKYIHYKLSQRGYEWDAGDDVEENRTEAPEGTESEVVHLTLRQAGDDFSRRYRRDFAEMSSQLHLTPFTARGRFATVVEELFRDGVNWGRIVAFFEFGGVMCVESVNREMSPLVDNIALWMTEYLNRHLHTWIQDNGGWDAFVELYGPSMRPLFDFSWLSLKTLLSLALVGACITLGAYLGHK
Sequence of Bcl-XL protein (Q07817 with tags, fused parts or gaps DEL45-84): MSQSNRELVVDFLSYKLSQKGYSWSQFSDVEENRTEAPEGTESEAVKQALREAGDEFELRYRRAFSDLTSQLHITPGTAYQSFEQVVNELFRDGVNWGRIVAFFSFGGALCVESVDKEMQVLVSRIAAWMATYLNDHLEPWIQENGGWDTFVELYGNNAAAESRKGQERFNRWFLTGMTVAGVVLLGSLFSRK

| Molecule | EC50 [1, 5] [nM] | AUC(0-inf) [2] [µM·h] | Ki [3] [nM] | Ki [4] [nM] | also measured |
| --- | --- | --- | --- | --- | --- |
| CC1(C)CCC(c2ccc(Cl)cc2)=C(CN2CCN(c3ccc(C(=O)NS(=O)(=O)c4ccc(N[C@H](CCN5CCOCC5)CSc5ccccc5)c(S(=O)(=O)C(F)(F)Cl)c4)cc3)CC2)C1 [Example 19, 3-((chloro(difluoro)methyl)sulfonyl)-N-(4-(4-((2-(4-chlorophenyl)-5,5-dimethylcyclohex-1-en-1-yl)methyl)piperazin-1-yl)benzoyl)-4-(((1R)-3-(morpholin-4-yl)-1-((phenylsulfanyl)methyl)propyl)amino)benzenesulfonamide] | 15.8 | 7.12 | ≤ 1 | ≤ 1 | – |
| O=C(NS(=O)(=O)c1ccc(N[C@H](CCN2CCCC2)CSc2ccccc2)c(S(=O)(=O)C(F)(F)F)c1)c1ccc(N2CCN(CC3=C(c4ccc(Cl)cc4)CCCCC3)CC2)cc1 [Example 29, N-(4-(4-((2-(4-chlorophenyl)cyclohept-1-en-1-yl)methyl)piperazin-1-yl)benzoyl)-4-(((1R)-1-((phenylsulfanyl)methyl)-3-(pyrrolidin-1-yl)propyl)amino)-3-((trifluoromethyl)sulfonyl)benzenesulfonamide] | 29.8 | 1.74 | ≤ 1 | ≤ 1 | – |
| CN(C)CC[C@H](CSc1ccccc1)Nc1ccc(S(=O)(=O)NC(=O)c2ccc(N3CCN(CC4=C(c5ccc(Cl)cc5)CCCCC4)CC3)cc2)cc1S(=O)(=O)C(F)(F)F [Example 17, N-(4-(4-((2-(4-chlorophenyl)cyclohept-1-en-1-yl)methyl)piperazin-1-yl)benzoyl)-4-(((1R)-3-(dimethylamino)-1-((phenylsulfanyl)methyl)propyl)amino)-3-((trifluoromethyl)sulfonyl)benzenesulfonamide] | 28.7 | 0.88 | ≤ 1 | ≤ 1 | – |
| O=C(NS(=O)(=O)c1ccc(N[C@H](CCN2CC3CC2CO3)CSc2ccccc2)c(S(=O)(=O)C(F)(F)Cl)c1)c1ccc(N2CCN(CC3=C(c4ccc(Cl)cc4)CCCCC3)CC2)cc1 (stereo partly drawn) [Example 13, 3-((chloro(difluoro)methyl)sulfonyl)-N-(4-(4-((2-(4-chlorophenyl)cyclohept-1-en-1-yl)methyl)piperazin-1-yl)benzoyl)-4-(((1R)-3-(2-oxa-5-azabicyclo[2.2.1]hept-5-yl)-1-((phenylsulfanyl)methyl)propyl)amino)benzenesulfonamide] | 19 | 2.06 | ≤ 1 | ≤ 1 | – |
| CC1(C)CCC(c2ccc(Cl)cc2)=C(CN2CCN(c3ccc(C(=O)NS(=O)(=O)c4ccc(N[C@H](CCN5CC6CC5CO6)CSc5ccccc5)c(S(=O)(=O)C(F)(F)F)c4)cc3)CC2)C1 (stereo partly drawn) [Example 10, N-(4-(4-((2-(4-chlorophenyl)-5,5-dimethylcyclohex-1-en-1-yl)methyl)piperazin-1-yl)benzoyl)-4-(((1R)-3-(2-oxa-5-azabicyclo[2.2.1]hept-5-yl)-1-((phenylsulfanyl)methyl)propyl)amino)-3-((trifluoromethyl)sulfonyl)benzenesulfonamide] | 34.2 | 2.48 | ≤ 1 | ≤ 1 | – |
| O=C(NS(=O)(=O)c1ccc(N[C@H](CCN2CCCOCC2)CSc2ccccc2)c(S(=O)(=O)C(F)(F)F)c1)c1ccc(N2CCN(CC3=C(c4ccc(Cl)cc4)CCCC3)CC2)cc1 [Example 15, N-(4-(4-((2-(4-chlorophenyl)cyclohex-1-en-1-yl)methyl)piperazin-1-yl)benzoyl)-4-(((1R)-3-(1,4-oxazepan-4-yl)-1-((phenylsulfanyl)methyl)propyl)amino)-3-((trifluoromethyl)sulfonyl)benzenesulfonamide] | 9.9 | 1.25 | ≤ 1 | ≤ 1 | – |
| CN(C)CC[C@H](CSc1ccccc1)Nc1ccc(S(=O)(=O)NC(=O)c2ccc(N3CCN(Cc4ccccc4-c4ccc(Cl)cc4)CC3)cc2)c(F)c1C(F)(F)F [D, reference compound] | – | – | – | – | EC50 [1, 6]: 7330 nM; AUC [2, 7]: 3.83 µM·h; Cmax [2, 8]: 386 nM |
| CN(C)CC[C@H](CSc1ccccc1)Nc1ccc(S(=O)(=O)NC(=O)c2ccc(N3CCN(Cc4ccccc4-c4ccc(Cl)cc4)CC3)cc2)cc1C#N [C, reference compound] | – | – | – | – | EC50 [1, 6]: 1810 nM; AUC [2, 7]: 1.92 µM·h; Cmax [2, 8]: 315 nM |
| CN(C)CC[C@H](CSc1ccccc1)Nc1ccc(S(=O)(=O)NC(=O)c2ccc(N3CCN(Cc4ccccc4-c4ccc(Cl)cc4)CC3)cc2)cc1[N+](=O)[O-] [B, reference compound] | – | – | – | – | EC50 [1, 6]: 63 nM; AUC [2, 7]: 0.283 µM·h; Cmax [2, 8]: 39 nM |
| 3-((chloro(difluoro)methyl)sulfonyl)-N-(4-(4-((2-(4-chlorophenyl)-4,4-dimethylcyclohex-1-en-1-yl)methyl)piperazin-1-yl)benzoyl)-4-(((1R)-3-(dimethylamino)-1-((phenylsulfanyl)methyl)propyl)amino)benzenesulfonamide [Example 28] | – | – | – | – | EC50 ([1]; Table 1, read-out: NCI-H146 Cellular Efficacy EC50): 24.2 nM |
| CN(C)CC[C@H](CSc1ccccc1)Nc1ccc(S(=O)(=O)NC(=O)c2ccc(N3CCN(CC4=C(c5ccc(Cl)cc5)CCCC4)CC3)cc2)cc1C(F)(F)F [H, reference compound] | – | – | – | – | EC50 [1, 9]: 410 nM; AUC [2, 10]: 1.97 µM·h; Cmax [2, 11]: 215 nM |
| CN(C)CC[C@H](CSc1ccccc1)Nc1ccc(S(=O)(=O)NC(=O)c2ccc(N3CCN(Cc4ccccc4-c4ccc(Cl)cc4)CC3)cc2)cc1C(F)(F)F [A, reference compound] | – | – | – | – | EC50 [1, 6]: 1600 nM; AUC [2, 7]: 4.41 µM·h; Cmax [2, 8]: 371 nM |
| CN(C)CC[C@H](CSc1ccccc1)Nc1ccc(S(=O)(=O)NC(=O)c2ccc(N3CCN(CC4=C(c5ccc(Cl)cc5)CCCC4)CC3)cc2)cc1[N+](=O)[O-] [G, reference compound] | – | – | – | – | EC50 [1, 9]: 26 nM; AUC [2, 10]: 0.507 µM·h; Cmax [2, 11]: 57 nM |
| CN(C)CC[C@H](CSc1ccccc1)Nc1ccc(S(=O)(=O)NC(=O)c2ccc(N3CCN(CC4=C(c5ccc(Cl)cc5)CC(C)(C)CC4)CC3)cc2)cc1S(=O)(=O)C(F)(F)Cl [Example 28, 3-((chloro(difluoro)methyl)sulfonyl)-N-(4-(4-((2-(4-chlorophenyl)-4,4-dimethylcyclohex-1-en-1-yl)methyl)piperazin-1-yl)benzoyl)-4-(((1R)-3-(dimethylamino)-1-((phenylsulfanyl)methyl)propyl)amino)benzenesulfonamide] | – | – | ≤ 1 | ≤ 1 | – |
